Source: patent US12486302B2, “Somatostatin receptor antagonist compounds and methods of using the same” (CDRD VENTURES INC., priority 2016, dated 2025)
Where a SMILES comes first, the peptide text is derived from it. Bridges are numbered along the chain shown (N, C = ends). [ ]: non-standard residue; d: D form. The star is where a group is joined. ξ: configuration not given here. dPhe(4-CONH2) = NC(=O)c1ccc(C[C@@H](N)C(=O)O)cc1; Phe(4-Cl) = N[C@@H](Cc1ccc(Cl)cc1)C(=O)O; ξPhe(4-Cl) = NC(Cc1ccc(Cl)cc1)C(=O)O; Butanoyl(3,3-Me2) = CC(C)(C)CC(=O)*; Lys(Me) = CNCCCC[C@H](N)C(=O)O; X4 = O=C(CS(=O)(=O)c1ccccc1)*; Succinamoyl = NC(=O)CCC(=O)*; Picolinoyl = O=C(c1ccccn1)*; ξY = NC(Cc1ccc(O)cc1)C(=O)O; 2Furoyl = O=C(c1ccco1)*; Hexanoyl = CCCCCC(=O)*; Bz = O=C(c1ccccc1)*; βAla = NCCC(=O)O

Target: somatostatin type 2 (SSTR2) receptors (Homo sapiens, UniProt P30874)
Sequence (P30874 whole entry): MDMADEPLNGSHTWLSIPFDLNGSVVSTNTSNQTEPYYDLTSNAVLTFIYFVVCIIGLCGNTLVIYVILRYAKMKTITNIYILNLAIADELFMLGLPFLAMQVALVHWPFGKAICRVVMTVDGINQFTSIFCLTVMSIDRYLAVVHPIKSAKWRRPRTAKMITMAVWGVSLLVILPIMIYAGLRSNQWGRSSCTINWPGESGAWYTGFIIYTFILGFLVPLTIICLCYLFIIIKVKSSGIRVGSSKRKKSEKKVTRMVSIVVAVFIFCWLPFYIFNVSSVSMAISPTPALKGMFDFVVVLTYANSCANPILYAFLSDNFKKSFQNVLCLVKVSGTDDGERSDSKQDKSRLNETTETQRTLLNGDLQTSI
Assay: PathHunter β-Arrestin assay, antagonist mode, SSTR2
Type: cell-based
Settings: agonist challenge at EC80
Method: The PathHunter® β-Arrestin assay monitors the activation of a GPCR in a homogenous, non-imaging assay format using a technology developed by DiscoveRx called Enzyme Fragment Complementation (EFC) with β-galactosidase (β-Gal) as the functional reporter. […] EA is fused to β-Arrestin and […] is fused to the GPCR of interest. When the GPCR is activated and β-Arrestin is recruited to the receptor, ED and EA complementation occurs, restoring β-Gal activity which is measured using chemiluminescent PathHunter® Detection Reagents. For antagonist determination, cells were pre-incubated with the compounds followed by agonist challenge at the EC80 concentration. Data was normalized to the maximal and minimal response observed in the presence of EC80 ligand and vehicle. Compound activity was analyzed using CBIS data analysis suite ChemInnovation, CA). Percentage inhibition was calculated using the following formula: % Inhibition=100%×(1−(mean signal of test sample-mean signal of vehicle control)/(mean signal of EC80 control-mean signal of vehicle control)). Percentage inhibition was calculated at 10 concentrations in steps on a Log 3 scale ranging from […] to 5e-5 μM. The results were plotted for IC50 calculation.

Compound	IC50
C[C@@H](O)[C@@H]1NC(=O)[C@H](CCCCN)NC(=O)[C@@H](Cc2ccc(C(N)=O)cc2)NC(=O)[C@H](Cc2ccc(O)cc2)NC(=O)[C@H](NC(=O)[C@@H](N)Cc2ccc(Cl)cc2)CSSC[C@@H](C(=O)NC(Cc2ccc(Cl)cc2)C(N)=O)NC1=O (stereo partly drawn) [Compound 42, H-Cpa-cyclo[DCys- Tyr-D-(4- carbamoyl)Phe- Lys-Thr-Cys]- 4-Cl-D-Phe-NH2] (H-[Phe(4-Cl)][dC]Y[dPhe(4-CONH2)]KTC[ξPhe(4-Cl)]-NH2; disulfide 2-7)	9.84 nM
C[C@@H](O)[C@@H]1NC(=O)[C@H](CCCCN)NC(=O)[C@@H](Cc2ccc(C(N)=O)cc2)NC(=O)[C@H](Cc2ccc(Cl)cc2)NC(=O)[C@H](NC(=O)[C@@H](N)Cc2ccc(Cl)cc2)CSSC[C@@H](C(=O)NC(Cc2ccc(Cl)cc2)C(N)=O)NC1=O (stereo partly drawn) [Compound 43, H-Cpa-cyclo[DCys- 4-Cl-Phe-D-(4- carbamoyl)Phe-Lys- Thr-Cys]-4-Cl-D- Phe-NH2] (H-[Phe(4-Cl)][dC][Phe(4-Cl)][dPhe(4-CONH2)]KTC[ξPhe(4-Cl)]-NH2; disulfide 2-7)	25.6 nM
COc1ccc(CC(NC(=O)[C@@H]2CSSC[C@@H](NC(=O)[C@@H](N)Cc3ccc(Cl)cc3)C(=O)N[C@@H](Cc3ccc(O)cc3)C(=O)N[C@H](Cc3ccc(C(N)=O)cc3)C(=O)N[C@@H](CCCCN)C(=O)N[C@@H]([C@@H](C)O)C(=O)N2)C(N)=O)cc1 (stereo partly drawn) [Compound 44, H-Cpa-cyclo[DCys- Tyr-D-(4- carbamoyl)Phe-Lys- Thr-Cys]-4-OMe-D- Phe-NH2] (H-[Phe(4-Cl)][dC]Y[dPhe(4-CONH2)]KTC[ξY](Me)-NH2; disulfide 2-7)	10.7 nM
COc1ccc(CC(NC(=O)[C@@H]2CSSC[C@@H](NC(=O)[C@@H](N)Cc3ccc(Cl)cc3)C(=O)N[C@@H](Cc3ccc(OC)cc3)C(=O)N[C@H](Cc3ccc(C(N)=O)cc3)C(=O)N[C@@H](CCCCN)C(=O)N[C@@H]([C@@H](C)O)C(=O)N2)C(N)=O)cc1 (stereo partly drawn) [Compound 45, H-Cpa-cyclo[DCys- 4-OMe-Phe-D-(4- carbamoyl)Phe-Lys- Thr-Cys]-4-OMe-D- Phe-NH2] (H-[Phe(4-Cl)][dC]Y(Me)[dPhe(4-CONH2)]KTC[ξY](Me)-NH2; disulfide 2-7)	14.6 nM
CNCCCC[C@@H]1NC(=O)[C@@H](Cc2ccc(C(N)=O)cc2)NC(=O)[C@H](Cc2ccc(O)cc2)NC(=O)[C@H](NC(=O)[C@@H](N)Cc2ccc(Cl)cc2)CSSC[C@@H](C(=O)NC(Cc2ccc(Cl)cc2)C(N)=O)NC(=O)[C@H]([C@@H](C)O)NC1=O (stereo partly drawn) [Compound 46, H-Cpa-cyclo[D-Cys-Tyr-D-Phe(4-carbamoyl)-Lys(N^ε-Me)-Thr-Cys]-D-Cpa-NH2] (H-[Phe(4-Cl)][dC]Y[dPhe(4-CONH2)][Lys(Me)]TC[ξPhe(4-Cl)]-NH2; disulfide 2-7)	0.398 nM
CNCCCC[C@@H]1NC(=O)[C@@H](Cc2ccc(C(N)=O)cc2)NC(=O)[C@H](Cc2ccc(Cl)cc2)NC(=O)[C@H](NC(=O)[C@@H](N)Cc2ccc(Cl)cc2)CSSC[C@@H](C(=O)NC(Cc2ccc(Cl)cc2)C(N)=O)NC(=O)[C@H]([C@@H](C)O)NC1=O (stereo partly drawn) [Compound 47, H-Cpa-cyclo[D-Cys-Cpa-D-Phe(4-carbamoyl)-Lys(N^ε-Me)-Thr-Cys]-D-Cpa-NH2] (H-[Phe(4-Cl)][dC][Phe(4-Cl)][dPhe(4-CONH2)][Lys(Me)]TC[ξPhe(4-Cl)]-NH2; disulfide 2-7)	1.51 nM
CNCCCC[C@@H]1NC(=O)[C@@H](Cc2ccc(C(N)=O)cc2)NC(=O)[C@H](Cc2ccc(Cl)cc2)NC(=O)[C@H](NC(=O)[C@@H](N)Cc2ccc(Cl)cc2)CSSC[C@@H](C(=O)NC(Cc2ccc(O)cc2)C(N)=O)NC(=O)[C@H]([C@@H](C)O)NC1=O (stereo partly drawn) [Compound 48, H-Cpa-cyclo[D-Cys-Cpa-D-Phe(4-carbamoyl)-Lys(N^ε-Me)-Thr-Cys]-D-Tyr-NH2] (H-[Phe(4-Cl)][dC][Phe(4-Cl)][dPhe(4-CONH2)][Lys(Me)]TC[ξY]-NH2; disulfide 2-7)	1.31 nM
CNCCCC[C@@H]1NC(=O)[C@@H](Cc2ccc(C(N)=O)cc2)NC(=O)[C@H](Cc2ccc(O)cc2)NC(=O)[C@H](NC(=O)[C@H](Cc2ccc(Cl)cc2)NC(=O)CCN)CSSC[C@@H](C(=O)N[C@H](Cc2ccc(O)cc2)C(N)=O)NC(=O)[C@H]([C@@H](C)O)NC1=O [Compound 49, H-β-Ala-Cpa-cyclo[D-Cys-Tyr-D-Phe(4-carbamoyl)-Lys (Nε-Me)-Thr-Cys]-D-Tyr-NH2] (H-[βAla][Phe(4-Cl)][dC]Y[dPhe(4-CONH2)][Lys(Me)]TC[dY]-NH2; disulfide 3-8)	2.86 nM
CNCCCC[C@@H]1NC(=O)[C@@H](Cc2ccc(C(N)=O)cc2)NC(=O)[C@H](Cc2ccc(O)cc2)NC(=O)[C@H](NC(=O)[C@H](Cc2ccc(Cl)cc2)NC(=O)CNC(=O)c2ccccc2)CSSC[C@@H](C(=O)N[C@H](Cc2ccc(O)cc2)C(N)=O)NC(=O)[C@H]([C@@H](C)O)NC1=O [Compound 50, Ph(CO)NHCH2(CO)-Cpa-cyclo[D-Cys-Tyr-D-Phe(4-carbamoyl)-Lys(N^ε-Me)-Thr-Cys]-D-Tyr-NH2] (Bz-G[Phe(4-Cl)][dC]Y[dPhe(4-CONH2)][Lys(Me)]TC[dY]-NH2; disulfide 3-8)	1.11 nM
CNCCCC[C@@H]1NC(=O)[C@@H](Cc2ccc(C(N)=O)cc2)NC(=O)[C@H](Cc2ccc(O)cc2)NC(=O)[C@H](NC(=O)[C@H](Cc2ccc(Cl)cc2)NC(=O)CS(=O)(=O)c2ccccc2)CSSC[C@@H](C(=O)N[C@H](Cc2ccc(O)cc2)C(N)=O)NC(=O)[C@H]([C@@H](C)O)NC1=O [Compound 51, PhSO2CH2(CO)-Cpa-cyclo[D-Cys-Tyr-D-Phe(4-carbamoyl)-Lys(N^ε-Me)-Thr-Cys]-D-Tyr-NH2] (X4-[Phe(4-Cl)][dC]Y[dPhe(4-CONH2)][Lys(Me)]TC[dY]-NH2; disulfide 2-7)	1.45 nM
CNCCCC[C@@H]1NC(=O)[C@@H](Cc2ccc(C(N)=O)cc2)NC(=O)[C@H](Cc2ccc(O)cc2)NC(=O)[C@H](NC(=O)[C@H](Cc2ccc(Cl)cc2)NC(=O)CC(C)(C)C)CSSC[C@@H](C(=O)N[C@H](Cc2ccc(O)cc2)C(N)=O)NC(=O)[C@H]([C@@H](C)O)NC1=O [Compound 52, t-BuCH2(CO)-Cpa-cyclo[D-Cys-Tyr-D-Phe(4-carbamoyl)-Lys(N^ε-Me)-Thr-Cys]-D-Tyr-NH2] ({Butanoyl(3,3-Me2)}-[Phe(4-Cl)][dC]Y[dPhe(4-CONH2)][Lys(Me)]TC[dY]-NH2; disulfide 2-7)	1.73 nM
CNCCCC[C@@H]1NC(=O)[C@@H](Cc2ccc(C(N)=O)cc2)NC(=O)[C@H](Cc2ccc(O)cc2)NC(=O)[C@H](NC(=O)[C@H](Cc2ccc(Cl)cc2)NC(=O)c2ccccn2)CSSC[C@@H](C(=O)N[C@H](Cc2ccc(O)cc2)C(N)=O)NC(=O)[C@H]([C@@H](C)O)NC1=O [Compound 53, 2-Pyridyl(CO)-Cpa-cyclo[D-Cys-Tyr-D-Phe(4-carbamoyl)-Lys(N^ε-Me)-Thr-Cys]-D-Tyr-NH2] (Picolinoyl-[Phe(4-Cl)][dC]Y[dPhe(4-CONH2)][Lys(Me)]TC[dY]-NH2; disulfide 2-7)	4.28 nM
CNCCCC[C@@H]1NC(=O)[C@@H](Cc2ccc(C(N)=O)cc2)NC(=O)[C@H](Cc2ccc(O)cc2)NC(=O)[C@H](NC(=O)[C@H](Cc2ccc(Cl)cc2)NC(=O)CCC(N)=O)CSSC[C@@H](C(=O)N[C@H](Cc2ccc(O)cc2)C(N)=O)NC(=O)[C@H]([C@@H](C)O)NC1=O [Compound 54, H2N(CO)(CH2)2(CO)-Cpa-cyclo[D-Cys-Tyr-D-Phe(4-carbamoyl)-Lys(N^ε-Me)-Thr-Cys]-D-Tyr-NH2] (Succinamoyl-[Phe(4-Cl)][dC]Y[dPhe(4-CONH2)][Lys(Me)]TC[dY]-NH2; disulfide 2-7)	2.33 nM
CNCCCC[C@@H]1NC(=O)[C@@H](Cc2ccc(C(N)=O)cc2)NC(=O)[C@H](Cc2ccc(O)cc2)NC(=O)[C@H](NC(=O)[C@H](Cc2ccc(Cl)cc2)NC(=O)CNC(C)=O)CSSC[C@@H](C(=O)N[C@H](Cc2ccc(O)cc2)C(N)=O)NC(=O)[C@H]([C@@H](C)O)NC1=O [Compound 55, Ac-Gly-Cpa-cyclo[D-Cys-Tyr-D-Phe(4-carbamoyl)-Lys(N^ε-Me)-Thr-Cys]-D-Tyr-NH2] (Ac-G[Phe(4-Cl)][dC]Y[dPhe(4-CONH2)][Lys(Me)]TC[dY]-NH2; disulfide 3-8)	3.35 nM
CCCCCC(=O)N[C@@H](Cc1ccc(Cl)cc1)C(=O)N[C@@H]1CSSC[C@@H](C(=O)N[C@H](Cc2ccc(O)cc2)C(N)=O)NC(=O)[C@H]([C@@H](C)O)NC(=O)[C@H](CCCCNC)NC(=O)[C@@H](Cc2ccc(C(N)=O)cc2)NC(=O)[C@H](Cc2ccc(O)cc2)NC1=O [Compound 56, CH3(CH2)4(CO)-Cpa-cyclo[D-Cys-Tyr-D-Phe(4-carbamoyl)-Lys(N^ε-Me)-Thr-Cys]-D-Tyr-NH2] (Hexanoyl-[Phe(4-Cl)][dC]Y[dPhe(4-CONH2)][Lys(Me)]TC[dY]-NH2; disulfide 2-7)	1.6 nM
CNCCCC[C@@H]1NC(=O)[C@@H](Cc2ccc(C(N)=O)cc2)NC(=O)[C@H](Cc2ccc(O)cc2)NC(=O)[C@H](NC(=O)[C@H](Cc2ccc(Cl)cc2)NC(=O)c2ccco2)CSSC[C@@H](C(=O)N[C@H](Cc2ccc(O)cc2)C(N)=O)NC(=O)[C@H]([C@@H](C)O)NC1=O [Compound 57, (Furan-2-carboxy)-Cpa-cyclo[D-Cys-Tyr-D-Phe(4-carbamoyl)-Lys(N^ε-Me)-Thr-Cys]-D-Tyr-NH2] (2Furoyl-[Phe(4-Cl)][dC]Y[dPhe(4-CONH2)][Lys(Me)]TC[dY]-NH2; disulfide 2-7)	3.65 nM
